Experiments:
P. falciparum (FCB-1) = test: short-term in vitro invasion assay (newly invaded ring stages counted by microscopy); type: cell-based, Plasmodium falciparum
Description: Asexual blood stages of P. falciparum (FCB-1) were maintained at 37° C. in RPMI 1640/Albumax medium (Gibco) supplemented with 2 mM L-glutamine as previously described (Blackman, 1994 Methods Cell Biol. 45, 213-220). Cultures were gassed with 7% CO2, 5% O2 and 88% N2 and maintained by routine passage in fresh human erythrocytes. Parasites were synchronised by Percoll and sorbitol treatment (Holder & Freeman, 1982 J. Exp. Med. 156, 1528-1538); schizonts were purified by centrifugation over Percoll and then returned to culture in the presence of fresh erythrocytes. After 4 h, during which time released merozoites invaded erythrocytes, the cells were treated with 5% sorbitol for 10 min to lyse the residual schizonts, before returning the parasites to culture.
Compounds were tested for their ability to inhibit invasion in vitro, using two approaches: a short-term assay in which the number of newly invaded erythrocytes was counted using microscopy, and a growth assay measuring uptake of [^3H] hypoxanthine. In the short term-assay (described previously by Blackman et al, 1990 J. Exp. Med. 172, 379-382), compounds were incubated with purified P. falciparum schizonts at ^˜2% parasitaemia and ^˜2% haematocrit in triplicate cultures. After between 6 and 24 h, blood smears were stained with Giemsa's reagent and examined by microscopy. […]

MSP142 = MSP142 (Plasmodium falciparum, UniProt Q8I0U8); test: P. falciparum MSP1 secondary processing assay (merozoites, Western blot); type: biochemical; set-up: Merozoites were purified as described previously; endogenous in cells; host or cells: purified P. falciparum merozoites released from mature schizonts
Description: Merozoites were purified as described previously (Blackman 1994 Methods Cell Biol. 45, 213-220) after release from mature schizonts into growth medium supplemented with 2 mM EGTA. Merozoites were harvested by centrifugation, followed by sequential passage through pre-wetted filters of 3 and 1.2 μm pore size. Merozoites were washed in Ca^2+- and Mg^2+-free PBS in the presence of protease inhibitors (leupeptin, antipain and aprotinin at 10 μg ml^−1). The merozoites were then washed and resuspended in 50 mM Tris-HCl pH 7.2, 5 mM CaCl2, 1 mM MgCl2, plus leupeptin, antipain and aprotinin at 10 μg ml^−1 (processing buffer), and divided into 18 μl aliquots. Two microlitres of either diluted compound or reaction buffer were added and the samples incubated for 1 h at 37° C. Control assays included those in which processing was prevented by immediate addition of either SDS, 1 mM PMSF or 5 mM EGTA; and those in the absence of compound or in the presence of 0.2 mM TLCK (tosyl-L-lysyl chloromethyl ketone). After 1 h the reaction was stopped, and MSP1 processing was analysed using a Western blot-based assay (Blackman 1994 Methods Cell Biol. 45, 213-220). The blots were probed with a rabbit anti-MSP133/MSP142 antibody and the bands corresponding to MSP142 and MSP133 polypeptides were visualised by enhanced chemiluminescence.
Purified merozoites were incubated in the presence or absence of suramin or NTS and polypeptides subjected to SDS-PAGE and Western blotting.

[1] = biological target: T1, MSP119 from P. falciparum (Plasmodium falciparum, UniProt P04933, S1528A); test: NMR titration of 15N labelled MSP119 with suramin; type: binding
T1 construct: contained the 96 amino acid MSP119 fragment, preceded by a single His residue; N-terminal leader […]; (His6 + Factor Xa site); made in house; host or cells: Pichia pastoris (vector pPIC9K)
From the text: (§1) Plasmodium falciparum MSP119 (Swiss-Prot 04933) was expressed from a synthetic gene optimised for Pichia pastoris expression (European Patent No. EP1180120). This construct, inserted at the SnaBI site of vector pPIC9K (Invitrogen), contained the N-terminal leader sequence YHHHHHHIEGRH preceding the MSP119 sequence. A point mutation (Ser3 to Ala) was also introduced to eliminate N-glycosylation at Asn1. Following purification of MSP119 as described previously (Morgan et al, 1999 J. Mol. Biol. 289, 113-122), the N-terminal tag was cleaved with Factor Xa (New England Biolabs) and MSP119 was purified by gel filtration (Superdex 200). The fmal product contained the 96 amino acid MSP119 fragment, preceded by a single His residue.
NMR experiments were carried out on Varian spectrometers operating at proton frequencies of 500, 600 and 800 MHz. Suramin (0.03-16.0 mM) ^1H spectra were recorded at 5 to 35° C. […] MSP119/suramin samples were examined with either unlablled or ^15N labelled MSP119 in 50 mM sodium phosphate and 100 mM NaCl in 90% H2O/10% D2O at pH 6.5 (pH values are pH meter readings uncorrected for deuterium isotope effects). […] 1D ^1H and 2D ^1H-^15N HSQC NMR spectra were recorded for each concentration of suramin. […]

[2] = biological target: T1, MSP119 from P. falciparum; test: binding of suramin by fluorimetry
From the text: as §1
The intrinsic fluorescence of suramin was used to determine its capacity to bind to the various MSP1-derived proteins. The fluorescence was measured using a Perkin Elmer LS-3B or a Spex Fluoro Max 2 fluorimeter. Suramin was excited at a wavelength of 315 or 330 nm with 2.5 nm resolution, the emission spectra were measured at wavelengths ranging from 350-450 nm. Suramin and the MSP1 proteins were diluted in 20 mM NaH2PO4, 150 mM NaCl at pH 7.2 and analysed at 10 or 20° C. Titrations were performed by adding aliquots of the suramin solution to the MSP1 solution. […] The Kd for the suramin-MSP1 binding was determined from three independent experiments.

MSP142, sequence (Q8I0U8 20-1326): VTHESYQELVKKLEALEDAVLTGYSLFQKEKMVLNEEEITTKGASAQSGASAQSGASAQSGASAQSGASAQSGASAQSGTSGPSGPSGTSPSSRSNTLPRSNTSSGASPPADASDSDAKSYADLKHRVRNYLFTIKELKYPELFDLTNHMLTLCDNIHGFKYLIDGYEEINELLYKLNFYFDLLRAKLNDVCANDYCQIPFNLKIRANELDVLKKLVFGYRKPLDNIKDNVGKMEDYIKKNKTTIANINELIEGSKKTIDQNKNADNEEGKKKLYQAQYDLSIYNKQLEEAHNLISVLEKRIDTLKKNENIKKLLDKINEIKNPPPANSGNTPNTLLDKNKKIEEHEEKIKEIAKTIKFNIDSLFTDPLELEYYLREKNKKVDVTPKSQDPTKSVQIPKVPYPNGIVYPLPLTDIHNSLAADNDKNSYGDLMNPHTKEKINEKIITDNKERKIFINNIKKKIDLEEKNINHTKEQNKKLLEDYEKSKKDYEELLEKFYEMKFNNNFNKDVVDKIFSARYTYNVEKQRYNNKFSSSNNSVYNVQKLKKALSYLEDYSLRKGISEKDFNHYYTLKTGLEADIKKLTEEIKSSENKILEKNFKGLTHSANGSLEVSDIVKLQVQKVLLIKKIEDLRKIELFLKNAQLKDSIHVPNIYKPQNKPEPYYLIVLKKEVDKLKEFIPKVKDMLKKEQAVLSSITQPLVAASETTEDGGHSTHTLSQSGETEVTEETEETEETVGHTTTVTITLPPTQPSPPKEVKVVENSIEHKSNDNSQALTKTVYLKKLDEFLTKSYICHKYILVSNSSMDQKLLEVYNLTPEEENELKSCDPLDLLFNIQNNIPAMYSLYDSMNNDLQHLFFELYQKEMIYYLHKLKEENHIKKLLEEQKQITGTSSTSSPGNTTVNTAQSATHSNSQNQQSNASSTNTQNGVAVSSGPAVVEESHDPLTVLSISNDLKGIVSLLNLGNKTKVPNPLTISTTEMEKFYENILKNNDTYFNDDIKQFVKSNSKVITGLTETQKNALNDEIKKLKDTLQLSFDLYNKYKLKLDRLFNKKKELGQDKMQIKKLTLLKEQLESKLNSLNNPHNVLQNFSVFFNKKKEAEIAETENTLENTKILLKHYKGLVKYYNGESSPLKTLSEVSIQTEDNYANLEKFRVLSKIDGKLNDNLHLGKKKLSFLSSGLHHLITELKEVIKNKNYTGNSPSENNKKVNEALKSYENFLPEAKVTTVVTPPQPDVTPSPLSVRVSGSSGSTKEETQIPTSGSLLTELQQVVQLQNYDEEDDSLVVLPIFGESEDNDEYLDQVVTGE
MSP142, sequence (Q8I0U8 1327-1699): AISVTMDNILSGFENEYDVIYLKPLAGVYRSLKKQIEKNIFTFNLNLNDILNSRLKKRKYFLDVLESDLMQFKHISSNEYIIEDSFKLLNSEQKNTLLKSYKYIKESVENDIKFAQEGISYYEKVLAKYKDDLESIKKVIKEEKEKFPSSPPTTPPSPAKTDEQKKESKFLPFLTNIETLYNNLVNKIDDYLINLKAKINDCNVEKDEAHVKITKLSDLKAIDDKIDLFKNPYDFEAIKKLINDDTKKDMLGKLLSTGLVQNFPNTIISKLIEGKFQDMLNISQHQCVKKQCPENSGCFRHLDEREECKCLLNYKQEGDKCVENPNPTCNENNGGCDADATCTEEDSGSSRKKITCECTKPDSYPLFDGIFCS
T1 sequence (P04933 1526-1618 S1528A): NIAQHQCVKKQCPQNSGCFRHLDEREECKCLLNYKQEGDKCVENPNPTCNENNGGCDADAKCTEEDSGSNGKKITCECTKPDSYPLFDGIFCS

Structure (SMILES): Cc1ccc(C(=O)Nc2ccc(S(=O)(=O)O)c3cc(S(=O)(=O)O)cc(S(=O)(=O)O)c23)cc1NC(=O)c1cccc(NC(=O)Nc2cccc(C(=O)Nc3cc(C(=O)Nc4ccc(S(=O)(=O)O)c5cc(S(=O)(=O)O)cc(S(=O)(=O)O)c45)ccc3C)c2)c1 [suramin]
- inhibition of merozoite invasion of erythrocytes (microscopy, Giemsa) (P. falciparum (FCB-1)): inhibited merozoite invasion of erythrocytes
- inhibition of merozoite release from schizonts (microscopy) (P. falciparum (FCB-1)): did not inhibit merozoite release from schizonts
- inhibition of MSP142 secondary processing (MSP142; 200 μM, 1 h at 37° C.): absence of MSP133
- dose dependence of inhibition of MSP142 processing (FIG. 3B) (MSP142; 1.25-200 μM suramin): dose-dependent
- Kd [1]: ~15 mM
- enhancement of suramin fluorescence on addition to MSP119 [2]: No fluorescence enhancement

— patent publication US20070003987A1, “Screening method for substance binding to merozoite surface protein-1/42” (priority 2003, published 2007)
